In patent US20220041616A1, “SPIRO COMPOUND AND MEDICAL USES THEREOF” (The National Institutes of Pharmaceutical R&D Co., Ltd., priority 2018, published 2022) one finds IC50 data, which are given here for 16 molecules.

Where only a bound is given, the exact number is not on record here.

The experiment has as its target T1, ACC1 (Homo sapiens, UniProt Q13085).
T1 construct: purchased BPS bioscience
The experiment in a line: In vitro inhibition of ACC1 activity, ADP-Glo Kinase Analysis. The conditions noted are these: 1 nM ACC1, 10 μM acetyl-CoA, 20 μM ATP. It is filed as biochemical. The text has this:
ADP-Glo™ Kinase Analysis Kit (Promega) is used for the in vitro analysis of the inhibitory effect of the present compound on ACC1 or ACC2. ADP-Glo™ Kinase Analysis is a kinase detection analysis of luminescence method. ADP is produced in the process of catalyzing the substrate by ACC. ADP is converted into ATP which is then converted into light by Ultra-Glo™ luciferase. ADP is quantified by detecting the light signal, thus the enzyme activity can be measured by quantification of the ADP amount produced during the enzyme reaction. The analysis is carried out in two steps: in the first step, after the kinase reaction, a portion of ADP-Glo™ reagent equal in volume to the kinase reaction system is added to terminate the reaction and consume the remaining ATP; in the second step, a kinase detection reagent is added, which not only converts ADP into ATP, but also uses a coupled luciferase/luciferin reaction to detect newly synthesized ATP.
a. 10 mM compound stock solution (the present compound was dissolved in 100% DMSO to prepare the 10 mM stock solution) was diluted 50-fold to 200 μM with 100% DMSO, and then diluted in equal proportions (1:3) in a 96-well dilution plate (249944, Nunc). The gradient concentrations of the compound were 200 μM, 66.67 μM, 22.22 μM, 7.41 μM, 2.47 μM, 0.823 μM, 0.274 μM, 0.0914 μM, 0.0305 μM, 0.0102 μM, 0.00339 μM and 0.00113 μM.
b. 4.5 μL ACC1 working solution (BPS bioscience) (2.22 nM) was added to each well of a 384-well test plate (6007290, Perkin Elmer).
c. 0.5 μL of the serially diluted compound (prepared in step a) was added to each well of the 384-well test plate, which was centrifuged at 1000 rpm for 1 min and then incubated at room temperature for 15 min. The reaction system with compound GS-0976 at a final concentration of 0.1 μM was used as positive control; the reaction system with no compound but DMSO at a final concentration of 5% was used as negative control.
d. In the 384-well test plate (prepared in step c), 5 μL of the substrate working solution was added to each well to start the enzymatic reaction. The plate was centrifuged at 1000 rpm for 1 min and then incubated at room temperature for 30 min. The final concentration of each component in the ACC1 reaction system: 1 nM ACC1, 10 μM acetyl-CoA, 30 mM NaHCO3, and 20 μM ATP. The final concentration of each component in the ACC2 reaction system: 1.1 nM ACC2, 20 μM acetyl-CoA, 20 mM NaHCO3, and 15 μM ATP. Final concentrations of test compounds: 10 μM, 3.33 μM, 1.11 μM, 0.37 μM, 0.123 μM, 0.0411 μM, 0.0137 μM, 0.00457 μM, 0.00152 μM, 0.00051 μM, 0.00017 μM and 0.000056 μM. The final concentration of DMSO was 5% (v/v).
e. 10 μL of ADP-Glo reagent was added to each well of the 384-well test plate (prepared in step d), which was centrifuged at 1000 rpm for 1 min and then incubated at room temperature for 40 min.
f. 20 μL of kinase detection reagent was added to each well of the 384-well test plate (prepared in step e), which was centrifuged at 1000 rpm for 1 min and then incubated at room temperature for 40 min.
g. The chemiluminescence signal was detected with Perkin Elmer EnVision 2104.
ACC1 working solution and substrate working solution were both prepared with 1× kinase reaction buffer. The buffer was consisting of 50 mM HEPES buffer, 2 mM magnesium chloride, 0.01% BRIJ-35, 2 mM potassium citrate, 50 μg/mL BSA and 2 mM DTT.
The average value of the positive and negative control well and the standard deviation were calculated. The inhibition percentage was calculated according to the following formula: 100×[1−(compound−average value of positive control)/(average value of negative control-average value of positive control)].
IC50 of the compound was obtained using GraphPad Prism 6 software according to the following nonlinear fitting formula:
Y=Bottom+(Top−Bottom)/(1+10^((Log IC50−X)×Hillslope)), […]
(ADP-Glo turns the ADP formed in a reaction into a luminescent signal.)
As usually defined, the IC50 is the concentration that gives 50% inhibition. A low value points to higher potency. `COc1ccccc1[C@H](CN1c2sc(-c3ncco3)c(C)c2C(=O)[C@]2(C[C@H](C(=O)NC(C)(C)C(=O)O)C2)C1=O)OC1CCOCC1` [Compound 11, 2-((1s,3S)-7′-((R)-2-(2-methoxyphenyl)-2-((tetrahydro-2H-pyran-4-yl)oxy)ethyl)-3′-methyl-2′-(oxazol-2-yl)-4′,6′-dioxo-6′,7′-dihydro-4′H-spiro[cyclobutane-1,5′-thieno[2,3-b]pyridine]-3-carboxyamido)-2-methylpropionic Acid] returned a half-maximal inhibitory concentration (IC50) of less than 10 nM.

`COc1ccccc1[C@H](CN1c2sc(-c3ncco3)c(C)c2C(=O)[C@]2(C[C@H](C(=O)N(C)C)C2)C1=O)OC1CCOCC1` [Compound 12] displayed an IC50 of less than 10 nM.

Turning to `COc1ccccc1[C@H](CN1c2sc(-c3ncco3)c(C)c2C(=O)[C@]2(C[C@H](C(=O)N[C@@H](C)C(=O)O)C2)C1=O)OC1CCOCC1` [Compound 13], the IC50 is less than 10 nM.

`COc1ccccc1[C@H](CN1c2sc(-c3ncco3)c(C)c2C(=O)[C@]2(C[C@H](C(=O)N[C@H](C)C(=O)O)C2)C1=O)OC1CCOCC1` [Compound 14, ((1S,3S)-7′-((R)-2-(2-methoxyphenyl)-2-((tetrahydro-2H-pyran-4-yl)oxy)ethyl)-3′-methyl-2′-(oxazol-2-yl)-4′,6′-dioxo-6′,7′-dihydro-4′H-spiro[cyclobutane-1,5′-thieno[2,3-b]pyridine]-3-carbonyl)-D-alanine]: the IC50 is less than 10 nM.

With `COC(=O)[C@@H](C)NC(=O)[C@H]1C[C@@]2(C1)C(=O)c1c(sc(-c3ncco3)c1C)N(C[C@H](OC1CCOCC1)c1ccccc1OC)C2=O` [Compound 14-1, Methyl ((1S,3S)-7′-((R)-2-(2-methoxyphenyl)-2-((tetrahydro-2H-pyran-4-yl)oxy)ethyl)-3′-methyl-2′-(oxazol-2-yl)-4′,6′-dioxo-6′,7′-dihydro-4′H-spiro[cyclobutane-1,5′-thieno[2,3-b]pyridine]-3-carbonyl)-D-alaninate], the IC50 is less than 10 nM.

On to `COc1ccccc1[C@H](CN1c2sc(-c3ncco3)c(C)c2C(=O)[C@]2(C[C@H](C(=O)N(C)CC(=O)O)C2)C1=O)OC1CCOCC1` [Compound 15, N-((1s,3S)-7′-((R)-2-(2-methoxyphenyl)-2-((tetrahydro-2H-pyran-4-yl)oxy)ethyl)-3′-methyl-2′-(oxazol-2-yl)-4′,6′-dioxo-6′,7′-dihydro-4′H-spiro[cyclobutane-1,5′-thieno[2,3-b]pyridine]-3-carbonyl)-N-methylglycine], for which the half-maximal inhibitory concentration (IC50) is less than 10 nM.

Take `COC(=O)CN(C)C(=O)[C@H]1C[C@@]2(C1)C(=O)c1c(sc(-c3ncco3)c1C)N(C[C@H](OC1CCOCC1)c1ccccc1OC)C2=O` [Compound 15-1, Methyl N-((1s,3S)-7′-((R)-2-(2-methoxyphenyl)-2-((tetrahydro-2H-pyran-4-yl)oxy)ethyl)-3′-methyl-2′-(oxazol-2-yl)-4′,6′-dioxo-6′,7′-dihydro-4′H-spiro[cyclobutane-1,5′-thieno[2,3-b]pyridine]-3-carbonyl)-N-methylglycinate]: the IC50 is less than 10 nM.

Consider `COc1ccccc1[C@H](CN1c2sc(-c3ncco3)c(C)c2C(=O)[C@]2(C[C@H](C(=O)OCC(=O)O)C2)C1=O)OC1CCOCC1` [Compound 16, 2-(((1s,3S)-7′-((R)-2-(2-methoxyphenyl)-2-((tetrahydro-2H-pyran-4-yl)oxy)ethyl)-3′-methyl-2′-(oxazol-2-yl)-4′,6′-dioxo-6′,7′-dihydro-4′H-spiro[cyclobutane-1,5′-thieno[2,3-b]pyridine]-3-carbonyl)oxy)acetic Acid], for which the 50% inhibitory concentration (IC50) was less than 10 nM.

Turning to `COc1ccccc1[C@H](CN1c2sc(-c3ncco3)c(C)c2C(=O)[C@]2(C[C@H](C(N)=O)C2)C1=O)OC1CCOCC1` [Compound 17], the half-maximal inhibitory concentration (IC50) was less than 10 nM.

The molecule `COc1ccccc1[C@H](CN1c2sc(-c3ncco3)c(C)c2C(=O)[C@]2(C[C@H](C(=O)NCCO)C2)C1=O)OC1CCOCC1` [Compound 18, (1s,3S)-N-(2-hydroxyethyl)-7′-((R)-2-(2-methoxyphenyl)-2-((tetrahydro-2H-pyran-4-yl)oxy)ethyl)-3′-methyl-2′-(oxazol-2-yl)-4′,6′-dioxo-6′,7′-dihydro-4′H-spiro[cyclobutane-1,5′-thieno[2,3-b]pyridine]-3-carboxamide] displayed an IC50 of less than 10 nM.

The molecule `COc1ccccc1[C@H](CN1C(=O)C2(CCN(C(=O)OC(C)(C)C)CC2)C(=O)c2c1sc(-c1ncco1)c2C)OC1CCOCC1` [Compound 20, tert-butyl (R)-7′-(2-(2-methoxyphenyl)-2-((tetrahydro-2H-pyran-4-yl)oxy)ethyl)-3′-methyl-2′-(oxazol-2-yl)-4′,6′-dione-6′,7′-dihydro-4′H-spiro[piperidine-4,5′-thieno[2,3-d]pyridine]-1-carboxylate] displayed an IC50 of 10 to 100 nM.

`COc1ccccc1[C@H](CN1C(=O)C2(CCNCC2)C(=O)c2c1sc(-c1ncco1)c2C)OC1CCOCC1` [Compound 21, (R)-7′-(2-(2-methoxyphenyl)-2-((tetrahydro-2H-pyran-4-yl)oxy)ethyl)-3′-methyl-2′-(oxazol-2-yl)-4′H-spiro[piperidine-4,5′-thieno[2,3-d]pyridine]-4′,6′(7′H)-dione]: the half-inhibitory concentration (IC50) was less than 10 nM.

Consider `COC(=O)CN1CCC2(CC1)C(=O)c1c(sc(-c3ncco3)c1C)N(C[C@H](OC1CCOCC1)c1ccccc1OC)C2=O` [Compound 22, methyl (R)-2-(7′-(2-(2-methoxyphenyl)-2-((tetrahydro-2H-pyran-4-yl)oxy)ethyl)-3′-methyl-2′-(oxazol-2-yl)-4′,6′-dioxo-6′,7′-dihydro-4′H-spiro[piperidine-4,5′-thieno[2,3-d]pyridine]-1-yl)carboxylate], for which the concentration for half-maximal inhibition (IC50) was in the range of 10 to 100 nM.

With `COc1ccccc1[C@H](CN1C(=O)C2(CCN(CC(=O)O)CC2)C(=O)c2c1sc(-c1ncco1)c2C)OC1CCOCC1` [Compound 23, (R)-2-(7′-(2-(2-methoxyphenyl)-2-((tetrahydro-2H-pyran-4-yl)oxy)ethyl)-3′-methyl-2′-(oxazol-2-yl)-4′,6′-dioxo-6′,7′-dihydro-4′H-spiro[piperidine-4,5′-thieno[2,3-d]pyridin]-1-yl)acetic Acid], the IC50 is less than 10 nM.

Turning to `COc1ccccc1[C@H](CN1C(=O)C2(CCN(C(C)(C)C(=O)O)CC2)C(=O)c2c1sc(-c1ncco1)c2C)OC1CCOCC1` [Compound 25, (R)-2-(7′-(2-(2-methoxyphenyl)-2-((tetrahydro-2H-pyran-4-yl)oxy)ethyl)-3′-methyl-2′-(oxazol-2-yl)-4′,6′-dioxo-6′,7′-dihydro-4′H-spiro[piperidine-4,5′-thieno[2,3-d]pyridin]-1-yl)-2-methylpropionic Acid], the half-inhibitory concentration (IC50) lay within 10 to 100 nM.

`COC(=O)C(C)(C)N1CCC2(CC1)C(=O)c1c(sc(-c3ncco3)c1C)N(C[C@H](OC1CCOCC1)c1ccccc1OC)C2=O` [Compound 25-1, methyl (R)-2-(7′-(2-(2-methoxyphenyl)-2-((tetrahydro-2H-pyran-4-yl)oxy)ethyl)-3′-methyl-2′-(oxazol-2-yl)-4′,6′-dioxo-6′,7′-dihydro-4′H-spiro[piperidine-4,5′-thieno[2,3-d]pyridin]-1-yl)-2-methylpropanoate]: the concentration for half-maximal inhibition (IC50) lay in the range of 10 to 100 nM.
